Measured values taken from patent publication US10420850B2, “Method of imaging with a chelating agent” (ENDOCYTE, INC., priority 2015, dated 2019).

Test system: FR positive human xenograft models
Experiment: Mouse imaging: ^99mTc biodistribution and microSPECT/CT
Assay type: in vivo
Conditions: intravenous, tumor-bearing mice
Protocol: Etarfolatide kits were used for the preparation of ^99mTc-chelated radioactive drug substance. Radiochemical purity of ^99mTc-etarfolatide was determined by HPLC attached to a radiodetector. ^99mTc-etarfolatide was investigated in vivo using mice bearing FR positive human xenograft models. Test articles were administered intravenously in mice via the lateral tail vein. ^99mTc biodistribution was determined by removing selected tissues and measuring their radioactivity content in an automatic gamma-counter. High resolution three dimensional images of the radiolabel were obtained on a dual microSPECT/CT system.

SMILES: [NH-][C@@H](CNC(=O)CC[C@@H](NC(=O)c1ccc(NCc2cnc3nc(N)[nH]c(=O)c3n2)cc1)C(=O)O)C(=O)[N-][C@@H](CC(=O)O)C(=O)[N-][C@@H](C[S-])C(=O)O.[O]=[Tc+4] [^99mTc-etarfolatide]
- Time after which levels in normal FR-negative tissues had cleared to near baseline: 4 to 8 h
- Time tumor retention remained near maximum: approximately 18 hours
- Time of peak tissue levels post injection (FR-expressing tumor and kidney): 1 h
